# Test results reported in patent US5028586A, “Insulin derivatives and pharmaceutical preparations containing these derivatives” (Novo Norkisk A/S, priority 1985, dated 1991).
# System: guinea pigs
# Assay: Protracted hypoglycemia in guinea pigs after subcutaneous injection of insulin derivative preparations
# Type: in vivo
# Experimental: 25 ml of a medium containing 1.6 %(w/v) of glycerol. 0.33 % (w/v) of m-cresol, 1/75 M of sodium phosphate, pH value 7.3, were prepared. The solution was sterilized by filtration. 1.5 mg of human insulin-B21-methyl ester, prepared as described in Example 1, were suspended in 1.0 ml of medium.
# 4.5 mg of human insulin-A17-methyl ester were dissolved in 2.7 ml of 0.015 M phosphoric acid. 21 mg of sodium chloride and 4.1 μliters of an aqueous solution of 152 mM zinc chloride were added. The solution was sterilized by filtration. The pH value of the solution was adjusted to 8.0 under aseptic conditions with a sterile aqueous solution of sodium hydroxide. The pH value of the solution was then readjusted to 7.3 with sterile hydrochloric acid, and rhombohedral crystals with a mean size of 10 μm were formed with gentle stirring at 21° C. The volume was adjusted to 3 ml with sterile water.
# Moreover, a sterile solution of 3 ml of 13.5 mM phosphoric acid in admixture with 21 mg of sodium chloride and 9 μliters of m-cresol was prepared, and the pH value was adjusted to 7.3 with a sterile aqueous solution of sodium hydroxide. The two solutions were combined.
# 15 mg of human insulin-A4-gln, obtained as described in Example 5, was dissolved in 10 ml of a solution containing 13.5 mM phosphoric acid, 0.3 % m-cresol and 1.6 % glycerol. The solution was sterilized by filtration, and the pH value was adjusted to 9,0 with a sterile solution of sodium hydroxide. The pH value was readjusted to 8.2 with a sterile solution of hydrochloric acid, and human insulin-A4-gln crystallized as rhombohedral crystals with gentle stirring.
substance,measurement,setting,value
human insulin-A4-gln,"protracted hypoglycemic effect compared with ""Insulatard""","subcutaneous injection of crystalline suspension at 0.5 IU/kg, ""Insulatard"" at 0.5 IU/kg",nearly identical both in timing and amplitude
human insulin-A17-methyl ester,biological activity (area below the blood glucose curve) compared with human insulin,"dosage 18 μg/kg, crystalline zinc preparation",nearly the same biological activity as human insulin
same,"protracted insulin action compared with ""Insulatard""","dosage 18 μg/kg, crystalline zinc preparation, comparator ""Insulatard""",longer than the protracted action of the known injection preparation
same,hypoglycemia induced,"dosage 18 μg/kg, crystalline zinc preparation, pH 7.3",strongly protracted hypoglycemia
human insulin-B21-methyl ester,"protracted insulin action compared with ""Insulatard""","subcutaneous, zinc-free preparation, comparator standard protamin insulin preparation ""Insulatard""",comparable to the hypoglycemia observed after injection of a standard protamin insulin preparation
same,hypoglycemia after subcutaneous administration,"subcutaneous, zinc-free suspension 1.5 mg in 1.0 ml medium, pH 7.3",protracted hypoglycemia was observed
